Experiment [1] has as its target T1, human type II inosine-5′-monophosphate dehydrogenase (IMPDH II) (Homo sapiens, UniProt P12268).
T1 construct: gene IMPDH2; human recombinant IMPDH II
The experiment can be described thus: recombinant enzyme assay, NADH formation at […] nm, […] IMP and […] NAD. Type of experiment: biochemical.

Experiment [2] has as its target T1, human type II inosine-5′-monophosphate dehydrogenase (IMPDH II). The experiment can be described thus: recombinant enzyme assay, NADH formation at […] nm; positive control. The class given is biochemical.

pIC50, pKi: −log10 of the molar value.

3 compounds from PMC3549521, “Carbocyclic Analogues of Inosine-5’-Monophosphate: Synthesis and Biological Activity” (Acta Naturae, 2012) can be followed below.

T1 sequence (P12268 2-514): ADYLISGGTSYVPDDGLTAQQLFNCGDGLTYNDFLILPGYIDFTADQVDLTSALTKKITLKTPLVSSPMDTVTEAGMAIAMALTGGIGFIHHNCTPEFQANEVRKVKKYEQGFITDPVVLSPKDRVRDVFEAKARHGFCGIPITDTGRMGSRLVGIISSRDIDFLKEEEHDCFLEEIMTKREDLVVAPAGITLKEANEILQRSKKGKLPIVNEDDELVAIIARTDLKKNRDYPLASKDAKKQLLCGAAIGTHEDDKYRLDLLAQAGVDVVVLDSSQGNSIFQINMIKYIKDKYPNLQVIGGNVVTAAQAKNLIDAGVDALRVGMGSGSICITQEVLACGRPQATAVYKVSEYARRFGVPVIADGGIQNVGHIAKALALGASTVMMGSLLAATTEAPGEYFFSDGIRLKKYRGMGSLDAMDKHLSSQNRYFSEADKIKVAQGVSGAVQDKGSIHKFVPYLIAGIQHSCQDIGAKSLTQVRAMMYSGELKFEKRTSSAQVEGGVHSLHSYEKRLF

Take `O=c1[nH]cnc2c1ncn2C1CC(OCP(=O)(O)O)C(O)C1O` (stereo not drawn) [compound 2, 9-(4’-phosphonomethoxy-2’,3’-dihydroxycyclopent-1’-yl)hypoxanthine]: the negative-log Ki (pKi) in experiment [1] was 3.01. `NC(=O)c1ncn([C@@H]2O[C@H](COP(=O)(O)O)[C@@H](O)[C@H]2O)n1` [Ribavirin monophosphate]: in experiment [2], the pIC50 is 5.70. Turning to `O=c1[nH]cnc2c1ncn2C1C=CC(OCP(=O)(O)O)C1` (stereo not drawn) [compound 1, 9-(4’-Phosphonomethoxy-2’-cyclopenten-1’-yl)hypoxanthine], in experiment [1], the pKi was 3.32.
